The source of these data is patent publication US10293004B2, “Butyrate-producing bacterium and use thereof” (KABUSHIKI KAISHA YAKULT HONSHA, priority 2014, dated 2019).

A short description of assay [1]: Turbidity (OD660) after anaerobic culture of bacterial strains in PYGA, PYSA or PYXA medium. As for the experimental part:
(§1) A frozen stock solution of each bacterial strain (a 10% (w/v) skim milk-2% sodium glutamate solution in which bacterial cells were suspended) (cell count: 2.0 to 5.5×10^10 cells/mL) was thawed, and the solution was inoculated at 1% to 4 mL of a PY liquid medium supplemented with 33 mM sodium acetate and 0.5 (w/v) % glucose (PYGA medium), followed by anaerobic culture at 37° C. for 24 hours. After the culture, the culture solution was inoculated at 1% to a fresh PYGA medium, followed by anaerobic culture at 37° C. for 24 hours. After the culture, the turbidity (OD660) of the culture solution was measured. Then, the culture solution was inoculated at 1% to a PY medium containing 0.5 (w/v) % L-sorbose or D-xylitol and 33 mM sodium acetate (the medium containing L-sorbose: PYSA, and the medium containing D-xylitol: PYXA), followed by anaerobic culture at 37° C. for 24 hours. Then, the turbidity (OD660) was measured.

A short description of assay [2]: Production of butyrate by each bacterial strain from L-sorbose and D-xylitol (ion-exclusion HPLC). The settings on record: 24 hours, minus PYA blank. On the procedure:
as §1
After the completion of the culture, the organic acid concentration in the culture solution was quantified by ion-exclusion HPLC. In this operation, a culture solution in a PY medium supplemented with sodium acetate but without L-sorbose or D-xylitol (PYA medium) was used as a blank.
(HPLC Analysis Conditions) • Eluent: 15 mM perchloric acid-7% acetonitrile • pH adjuster: 15 mM perchloric acid-60 mM • tris(hydroxymethyl)aminomethane-7% acetonitrile • Separation column: Organic acid analysis column RSpak KC- • 811×2 (manufactured by Showa Denko K.K.) • Column temperature: 42° C. • Injected sample volume: 10 μL • Flow rate: 1.0 mL/min • Analysis time: 35 min • Detector: Waters 432 electric conductivity detector • Cell temperature: 45° C.
The amount of butyrate produced was calculated according to (Expression 1). Amount of butyrate produced=(Amount of butyrate produced by culture for 24 hours in a PYSA or PYXA medium)−(Amount of butyrate produced by culture for 24 hours in a PYA medium) (Expression 1)

Assay [3] in a line: Amount of butyrate produced by culture in PYA medium supplemented with acetate and lactate. The settings on record: PYA medium (33 mM sodium acetate) with 40 mM sodium lactate, 37° C. 24 hours, minus PYA without lactate. On the procedure: Each bacterial solution cultured in a PYGA liquid medium under the same conditions as those described in the preceding paragraph 1) was inoculated at 1% to a PYA medium containing 33 mM sodium acetate and further supplemented with 40 mM sodium lactate, followed by anaerobic culture at 37° C. for 24 hours. After the completion of the culture, the organic acid concentration in the culture solution was analyzed by ion-exclusion HPLC. The analysis conditions were the same as those described in the preceding paragraph 1). The amount of butyrate produced was calculated according to (Expression 2). Amount of butyrate produced=(Amount of butyrate produced by culture for 24 hours in a PYA medium supplemented with 40 mM sodium lactate)−(Amount of butyrate produced by culture for 24 hours in a PYA medium without 40 mM sodium lactate) (Expression 2)

Assay [4] in a line: Biochemical properties: enzymatic activity (API-ZYM, Rapid ID32A API, API KENKI 20A). The arrangement: key: +: positive reaction; −: negative reaction; +^w: weak reaction. From the text:
Commercially available API-ZYM, Rapid ID32A API, and API KENKI 20A (SYSMEX bioMerieux Co., Ltd.) were used in the testing of biochemical properties of various bacterial strains. The testing method followed the product manuals.

A short description of assay [5]: Evaluation of ability to produce butyrate from indigestible saccharides (Example 3). The source says: Galactooligosaccharide (GOS), maltitol, D-mannitol, lactitol, isomalt, isomaltulose, L-sorbose and D-sorbitol were used as indigestible saccharides. These indigestible saccharides used, except for GOS, were reagent grade. GOS used was commercially available Oligomate 55N (Yakult Pharmaceutical Industry Co., Ltd.) from which monosaccharide and lactose fractions (fractions digestible and absorbable by the upper gastrointestinal tract) had been removed using an activated carbon column. Specifically, a saccharide solution diluted with purified water was added to a column packed with activated carbon (manufactured by Wako Pure Chemical Industries, Ltd.) swollen in purified water, and the column was washed with a 2% ethanol solution, followed by the elution of an indigestible fraction with a 50% ethanol solution. The eluate was dried under reduced pressure, and the obtained GOS saccharide solution was used.
A. hadrus YIT 10092^T (DSM 3119^T), which is a type strain of A. hadrus (a typical human intestinal butyrate-producing bacterium), and two isolates were used.
Each of these bacterial strains was anaerobically cultured at 37° C. for 24 hours in a PYA medium containing 33 mM sodium acetate supplemented with 0.5% D-glucose (PYGA medium). The culture solution was inoculated at 1% to a PYA medium containing 0.5 (w/v) % of each indigestible saccharide (test medium), followed by anaerobic culture at 37° C. for 24 hours. After the completion of the culture, the organic acid concentration in the culture solution was analyzed by ion-exclusion HPLC. The analysis conditions were the same as those described above in Example 2. After the quantification of the organic acid concentration, the amount of butyrate produced from each indigestible saccharide and the ratio of butyrate to total short-chain fatty acids were calculated according to the following expressions. (Amount of butyrate produced)=(Amount of butyrate in the test medium after culture)−(Amount of butyrate in a PYA medium without each indigestible saccharide after culture) (Ratio of butyrate)=(Amount of butyrate in the test medium after culture)/((Amount of acetate+Amount of propionate+Amount of butyrate) in the test medium after culture)×100 (Expression 3)

A further assay concerns mouse fresh feces. The assay can be described thus: Relationship between increase in cell count of YIT 12355 and butyrate concentration in mouse feces culture system. On the procedure:
0.8 g of mouse fresh feces obtained 1 week after the start of the single dose test of Example 6 was collected into a sample tube and the tube was transferred into a glove box with the low-temperature and anaerobic state maintained. The feces were diluted with PBS anaerobically substituted in advance (final dilution: 12.5-fold), and a maltitol solution (final concentration: 0.5%) and/or a cultured bacterial solution of YIT 12355 (1% inoculated) was added thereto, followed by anaerobic culture at 37° C. for 24 hours. After the culture, the butyrate concentration was measured by ion-exclusion HPLC using an electric conductivity detector.

“A. hadrus (Eubacterium hadrum) YIT 12355 (NITE BP-01832)”: the “Turbidity (OD660)” value in assay [1] (after anaerobic culture at 37° C. for 24 hours in PYGA liquid medium) worked out at 3.55. In addition, in assay [1] (anaerobic culture at 37° C. for 24 hours of 1% inoculum in PYSA (L-sorbose)), the “Turbidity (OD660)” value was determined as 2.39. In assay [1] (anaerobic culture at 37° C. for 24 hours of 1% inoculum in PYXA (D-xylitol)), the “Turbidity (OD660)” value came to 1.47. The “Amount of butyrate produced” value in assay [2] (D-Xylitol 0.5 (w/v) %, PYXA medium) was determined as 31.9 mmol/L. Further, the “Amount of butyrate produced” value in assay [2] (L-Sorbose 0.5 (w/v) %, PYSA medium) turned out to be 15.4 mmol/L. Further, the “Amount of butyrate produced” value in assay [3] was determined as 19.9 mmol/L. In addition, in assay [4], the Acid phosphatase entry is listed as “+”, the Alkaline phosphatase entry is reported as “+”, the “Esterase (C4)” value is “+” and the Naphthol-AS-B1-phosphohydrolase result is given as “+”. Besides, in assay [4], the α-Glucosidase result is listed as “+^w”, the β-Galactosidase entry is “+” and the β-Galactosidase-6-phosphate result was “−”. Besides, the “ability to utilize indigestible saccharides” value in assay [5] (PYA medium with 0.5 (w/v) % of each indigestible saccharide, versus type strain, FIGS. 3 and 4) is given as “more than the type strain YIT 10092^T”. Further, the “Amount of butyrate produced” value in assay [5] (from indigestible saccharides, versus type strain, FIG. 3) is on record as “larger”. In assay [5] (versus type strain YIT 10092^T, FIG. 4), the “ratio of butyrate to total short-chain fatty acids” value was “higher than that of the type strain YIT 10092^T”. In addition, the “cell count of A. hadrus” value in the assay on mouse fresh feces is given as “increased”. In the assay on mouse fresh feces (maltitol 0.5% and/or YIT 12355 1% inoculated, 37° C. 24 hours, FIG. 8), the butyrate concentration result is recorded as “increased”.
